From patent publication US20200030284A1, “MEDICAL USE OF ARTEMISININ DERIVATIVE FOR TREATING INFLAMMATORY BOWEL DISEASE” (SHANGHAI INSTITUTE OF MATERIA MEDICA,CHINESE ACADEMY OF …, priority 2017, published 2020)
Where a name gives a salt, the structure may show the parent alone.

Key:
Format in all cases: in vivo, Balb/c mice
[1] = test system: macrophages and neutrophils in mesenteric lymph nodes and spleen of DSS-induced colitis mice; test: Inflammatory cell detection by flow cytometry in mesenteric lymph nodes and spleen; settings: 10 mg/kg intragastric, FIG. 3A and 3B
Protocol: FIG. 3 is graphs showing the results of flow cytometry analysis, in which a single cell suspension was prepared from mesenteric lymph nodes and spleen of mice in various groups taken out at the end of the experiment, and the cells were labeled with the corresponding fluorescent antibody. FIG. 3A is for the isolated mesenteric lymph node cells, and FIG. 3B is for the isolated spleen lymphocytes, they were stained withanti-F4/80 antibody+anti-CD11b antibody (double positive cells were recognized as macrophages), and with anti-Gr-1 antibody+anti-CD11 b antibody (double positive cells were identified as neutrophils) respectively.
(§1) 1. Mice were randomly divided into a normal control group, a model group, a cyclosporin A (CsA) (20 mg/kg) treatment group, a 5-aminosalicylic acid (5-ASA) (50 mg/kg) treatment group, and the artemisinin derivative having anti-inflammatory immunosuppressive activity SM934, SM905, SM933 and SM735 (10 mg/kg each) treatment groups, with 8 mice per group. Except for the mice in the normal control group, for the mice in the other groups including the model group, the cyclosporine A treatment group, the 5-aminosalicylic acid treatment group, and the 4 artemisinin derivative treatment groups, 5% DSS was added to the drinking water for 7 consecutive days for induction of the intestinal inflammation model.
2. […]

[2] = test system: CD11b+ monocytes in colon tissue of DSS-induced colitis mice; test: Inflammatory cell detection in colon cryosections by fluorescence confocal microscopy; settings: middle segment of colon, 10 mg/kg intragastric, FIG. 4
Protocol: FIG. 4 is photographs showing the photographing and analyzing results under fluorescence confocal microscopy in which, after the middle segments of colons of mice in various groups were cryosectioned, the nucleus were stained with DAPI fluorescent antibody, and the mononuclear lymphocytes were stained with anti-CD11b antibody.
as §1
2. […]
2. The middle segment of the colon was cryosectioned, stained with the corresponding fluorescent antibody, photographed under a fluorescence confocal microscope and analyzed.

[3] = test system: pro-inflammatory cytokines in colon tissue of DSS-induced colitis mice; test: Detection of pro-inflammatory cytokine levels in colon tissue by ELISA; settings: colon homogenate, per unit of total protein, 10 mg/kg intragastric, FIG. 5
Protocol: as §1
2. From the start of the induction to the end of the experiment, mice in the various treatment groups were given cyclosporine A, 5-aminosalicylic acid 5-ASA or4 artemisinin derivatives (10 mg/kg) respectively by intragastric administration to conduct a therapeutic intervention.
[IV] Detection of Pro-Inflammatory Cytokine Levels in Colon Tissue
1. […] After centrifugation, the protein concentration in the homogenate supernatant was quantified with a BCA kit.
2. ELISA was used to detect the content of pro-inflammatory cytokine in the supernatant, which was expressed as the content of cytokine per unit of total protein.

C[C@@H]1CCC2[C@@H](C)[C@@H](OCCN)O[C@H]3O[C@@]4(C)CCC1[C@@]23OO4 (stereo partly drawn) [SM934, β-aminoarteether maleate]
reduced: proportion of macrophages (F4/80+ and CD11b+ double positive cells) [1] | proportion of neutrophils (Gr-1+ and CD11b+ double positive cells) [1] | infiltration of monocytes (CD11b+ cells) in colon tissue [2] | levels of pro-inflammatory cytokines in colon tissue [3]
